Assay results: patent US20050148534A1, “Small molecule compositions and methods for increasing drug efficiency using compositions thereof” (priority 2003, published 2005)
Like-named read-outs stand apart in the source and are kept apart here.

How the values were obtained:
[1] = biological target: T1, deoxyguanosine kinase (dGK) (Homo sapiens, UniProt Q16854); conditions: substrate activity; literature (Johansson et al.); cited from earlier work
T1 sequence (Q16854 40-277): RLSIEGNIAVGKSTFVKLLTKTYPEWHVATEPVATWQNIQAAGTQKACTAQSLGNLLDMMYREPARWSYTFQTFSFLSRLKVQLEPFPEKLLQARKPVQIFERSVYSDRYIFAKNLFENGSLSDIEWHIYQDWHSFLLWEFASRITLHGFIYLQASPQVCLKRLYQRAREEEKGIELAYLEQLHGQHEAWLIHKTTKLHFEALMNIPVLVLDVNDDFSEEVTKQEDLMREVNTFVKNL

[2] = biological target: deoxycytidine kinase (dCK) (Homo sapiens, UniProt P27707); conditions: substrate activity; literature (Johansson et al.; Eriksson et al.; Wang et al.), source per Table 3; cited from earlier work
Chain of deoxycytidine kinase (dCK) (P27707 whole entry, species assumed): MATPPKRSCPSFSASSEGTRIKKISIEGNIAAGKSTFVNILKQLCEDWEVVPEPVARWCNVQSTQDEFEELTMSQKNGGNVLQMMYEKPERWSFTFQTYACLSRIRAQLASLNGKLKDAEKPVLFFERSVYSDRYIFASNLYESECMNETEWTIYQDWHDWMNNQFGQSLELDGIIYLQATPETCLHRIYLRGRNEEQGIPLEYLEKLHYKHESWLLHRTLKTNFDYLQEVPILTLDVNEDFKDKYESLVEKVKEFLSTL

tubulin = experiment: Fluorescence-based microtubule polymerization assay (MPA); format: biochemical; conditions: mean percentage of paclitaxel or vinblastine activity; 0.75-10 micromolar
From the text: Drug-linker constructs may further be screened using functional assays predictive of biological activity. […] Tubulin assembly or inhibition thereof may be monitored by fluorescence using the CytoDYNAMIX Screen™ 10 kit available from Cytoskeleton (1830 S. Acoma St., Denver, Colo.). […] Emission is monitored at 405 nm with excitation at 360 nm. […] Tubulin assembly or inhibition may also be monitored by light scattering which is approximated by the apparent absorption at 350 nm. For paclitaxel drug conjugates BSA is employed to prevent aggregation and glycerol, which is a tubulin polymerization enhancer, is omitted from the kit to increase the signal to noise ratio.
The assay kit (#BK011) was purchased from Cytoskeleton (Denver, Colo.). The assays were carried out according to the manufacturer's instructions, except that 1 mg/ml BSA (Sigma #A3059) was included in all assays. […] Parent drugs and conjugates were tested at 0.75, 1.5, 3 and 10 micromolar final concentration and results represent a comparison of conjugate and parent drug curves obtained from the linear range of the dose responses.

[3] = biological target: T2, Human thymidine kinase 1 (TK1) (Homo sapiens, UniProt P04183); experiment: Thymidine kinase coupled (kinetic) ATP depletion assay; format: biochemical; conditions: initial velocity relative to thymidine; 100 μM conjugate
T2 construct: His tag (from pET28b(+)) (N); made in house; host or cells: E. coli BL21-codon plus
T2 sequence (P04183 1-234): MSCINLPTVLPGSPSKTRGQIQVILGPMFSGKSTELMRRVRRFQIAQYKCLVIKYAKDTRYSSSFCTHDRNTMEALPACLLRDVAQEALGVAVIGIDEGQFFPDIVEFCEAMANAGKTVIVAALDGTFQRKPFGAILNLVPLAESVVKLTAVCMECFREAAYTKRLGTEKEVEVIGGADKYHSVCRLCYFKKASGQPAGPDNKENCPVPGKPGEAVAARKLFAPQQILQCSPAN
Protocol: Thymidine kinase, viral thymidine kinase, TK-1 deoxycytidine kinase, and deoxyguanosine kinase activities are determined by subjecting a first end of a linker used in synthesizing linker-substrate constructs to a first test. The first test may involve observing ADP formation, an obligatory co-product of phospho group transfer from ATP which is catalyzed by the kinase to the C5′ hydroxyl group or its equivalent in the nucleoside or nucleoside analog. Formation of ADP is followed by a coupled enzyme assay well known in the art. ADP, formed from kinase phosphorylation, is used by pyruvate kinase to generate pyruvate from phosphoenolpyruvate which in turn is converted to lactate by lactate dehydrogenase. The lactate results in the consumption of NADH which is followed spectrophotometrically. The rate of nucleoside phosphorylation is then directly related to the rate of decrease in the observed NADH signal.
TK1 was amplified using PCR with forward primer 5′-[…]-3′ and reverse primer 5′-[…]-3′. The PCR product was digested with Nde I and Hind III. An N-terminal His-tagged TK1 construct, TK1/pET28b(+), was generated by subcloning TK1 into the Nde I and Hind III sites of prokaryotic expression vector pET28b (+) (Novagen, San Diego, Calif.). TK1 was expressed from TK1/pET28b(+) using E. coli strain BL21-codon plus (Stratagene, San Diego, Calif.) and purified by Ni column chromatography.
A coupled (kinetic) ATP depletion assay was developed to measure thymidine kinase activity. The reaction contained 100 mM Tris HCl, pH 7.5, 20 mM MgCl2, 100 mM KCl, 0.4 mM PEP, 0.2 mM NADH, Pyruvate Kinase (0.7 units)/Lactate Dehydrogenase (1.0 unit) (Sigma #PO294), 2.5-10 μg Thymidine Kinase, 100 μM thymidine or thymidine-drug conjugate in a volume of 75 μl. ATP (5 mM in 25 μl H2O) was added to initiate the reaction and the velocity of ATP depletion was monitored at 340 nm continuously for 15 minutes.

MCF-7 breast carcinoma [4] = experiment: Cytotoxicity assay (monolayer), MCF-7; format: cell-based; conditions: Homo sapiens, MCF7
Protocol: (§1) Statistical Assoc., 81, 991-999, 1986.
(§2) Monolayer assays with tumor cell lines (MCF-7 breast carcinoma and HT-29 colorectal carcinoma from ATCC) were carried out in triplicate in 96-well plates with RPMI1640 medium containing 5% fetal bovine serum, 100 U/ml penicillin and 100 μg/ml streptomycin. Normal human foreskin fibroblasts (HFF #CC-2509) were from Cambrex and were cultured in FGM-2 medium. Exponentially growing cells (5,000 MCF-7 or HT-29; 1,500 HFF) were plated in 100 μl medium and incubated overnight (5% CO2, 37° C.). Compounds (20 pM to 20 μM final concentration, 6-8 doses) and vehicle (DMSO) controls were added and the incubation was continued for an additional 72 hours. Final cell density was determined by incubating cultures with 25 μl AlamarBlue reagent (BioSource, Camarillo, Calif.) for 4 hours, followed by determination of fluorescence at excitation of 544 nm and emission of 590 nm with a SpectroMax Gemini EM fluorescence plate reader (Molecular Devices, Sunnyvale, Calif.). EC50 values were generated from dose-response curves by a 4-parameter method using Softmax PRO software. Mean EC50s (±SD) represent the average of all tests carried out for all lots of a given compound. […] Statistical Assoc., 81, 991-999 (1986).

[5] = system: HT-29 colorectal carcinoma; experiment: Cytotoxicity assay (monolayer), HT-29; format: cell-based; conditions: Homo sapiens
Protocol: as §1, §2

HUVEC = experiment: Cytotoxicity assay (monolayer), HUVEC; format: cell-based; conditions: Homo sapiens, read-out: HUVEC (EC50 Ave) ML
[6] = Serum stability in RPMI1640 medium containing 10% fetal bovine serum; format: in vitro ADME
Protocol: The stability of conjugates was measured in RPMI1640 cell culture medium containing 10% fetal bovine serum. The serum-containing medium was pre-warmed at 37° C. for 3 min prior to addition of test articles. Test articles, prepared in DMSO as 5 mM stocks, were added to the cell culture media to a final concentration of […]. Aliquots ([…]) were withdrawn in triplicate at 0, 4, 8, 24 and 72 hours and combined with the same volume of ice-cold acetonitrile to terminate the reaction. The mixture was centrifuged at 2,000×g for 10 minutes. One part of the supernatant was mixed with four parts of deionized water to bring down the percentage of organic solvent. The diluted samples were then assayed by LC/MS for the test article. The natural log of the percent remaining was plotted versus time. A linear fit was used to determine the rate constant. The fit was truncated after the percent of remaining test article was less than 10%. The elimination half-lives associated with the disappearance of test articles were determined to compare their relative stability. The assays were carried out by Absorption Systems (Exton, Pa.).

[7] = system: Normal human foreskin fibroblasts (HFF); experiment: Cytotoxicity assay (monolayer), HFF; format: cell-based; conditions: Fibroblast
Protocol: as §1, §2

MCF-7 breast carcinoma [8] = experiment: Cytotoxicity assay (soft agar), MCF-7; conditions: Homo sapiens
[9] = system: HT-29 colorectal carcinoma; experiment: Cytotoxicity assay (soft agar), HT-29; conditions: Homo sapiens

In the case of `Nc1nc(Cl)nc2c1ncn2[C@H]1C[C@H](O)[C@@H](CO)O1` [X = O, R3 = OH, R5 = H, B = 2-Cl-Adenine], the dGK [1] is listed as 180.

For `Nc1nc2c(ncn2C2CC(O)C(CO)C2)c(=O)[nH]1` (centres unmarked) [X = CH2, R3 = OH, R5 = H, B = Guanine], the dGK [1] is given as 70.

For `Nc1ncnc2c1ccn2[C@H]1C[C@H](O)[C@@H](CO)O1`, the dCK [2] is given as 50 and the dGK [1] is given as 100.

In the case of `Nc1ncnc2c1ncn2[C@@H]1O[C@H](CO)[C@@H](O)[C@@H]1O` [AraA], the dCK [2] is given as 50 and the dGK [1] is given as 15.

For `Nc1ncnc2c1ncn2C1CC(O)C(CO)O1` (centres unmarked) [dado], the dGK [1] is given as 100.

In the case of `CC[C@]1(O)C[C@@H]2CN(CCc3c([nH]c4ccccc34)[C@@](C(=O)OC)(c3cc4c(cc3OC)N(C)[C@H]3[C@@](O)(C(=O)NCCCCCCn5c(=O)c(C)cn([C@H]6C[C@H](O)[C@@H](CO)O6)c5=O)[C@H](O)[C@]5(CC)C=CCN6CC[C@]43[C@@H]65)C2)C1` [VBL-3Am-ALK(6)-N3-THY], the “Ave. MPA Act” value (tubulin) is reported as “B (B=60-100)” and the “Ave. TK1 Kinase Act.” value [3] is reported as “A (A<20)”.

For `O=c1[nH]cnc2c1ncn2C1OC(CO)C(O)C1O` (centres unmarked), the dGK [1] is listed as 290.

In the case of `CC(=O)O[C@@]12CO[C@@H]1C[C@H](O)[C@@]1(C)C(=O)[C@H](OC(=O)NCCCCCCn3c(=O)c(C)cn([C@@H]4C[C@H](O)[C@@H](CO)O4)c3=O)C3=C(C)[C@@H](OC(=O)[C@H](O)[C@@H](NC(=O)c4ccccc4)c4ccccc4)C[C@@](O)([C@@H](OC(=O)c4ccccc4)[C@H]21)C3(C)C` [PXL-10Ca-ALK(6)-N3-αTHY], the “Ave. MPA Act” value (tubulin) is reported as “B (B=60-100)” and the “Ave. TK1 Kinase Act.” value [3] is reported as “A (A<20)”.

In the case of `CC(=O)O[C@@]12CO[C@@H]1C[C@H](O)[C@@]1(C)C(=O)[C@H](OC(=O)NCCOCCOCCOCCn3c(=O)c(C)cn([C@@H]4C[C@H](O)[C@@H](CO)O4)c3=O)C3=C(C)[C@@H](OC(=O)[C@H](O)[C@@H](NC(=O)c4ccccc4)c4ccccc4)C[C@@](O)([C@@H](OC(=O)c4ccccc4)[C@H]21)C3(C)C` [PXL-10Ca-PEG(11)-N3-αTHY], the “Ave. MPA Act” value (tubulin) is reported as “B (B=60-100)” and the “Ave. TK1 Kinase Act.” value [3] is reported as “A (A<20)”.

For `Nc1nc2c(ncn2[C@@H]2O[C@H](CO)[C@@H](O)[C@@H]2O)c(=O)[nH]1` [AraG], the dCK [2] is given as 6 and the dGK [1] is given as 180.

For `CC[C@]1(O)C[C@@H]2CN(CCc3c([nH]c4ccccc34)[C@@](C(=O)OC)(c3cc4c(cc3OC)N(C)[C@H]3[C@@](O)(C(=O)NCCCn5c(=O)c(C)cn([C@H]6C[C@H](O)[C@@H](CO)O6)c5=O)[C@H](O)[C@]5(CC)C=CCN6CC[C@]43[C@@H]65)C2)C1` [VBL-3Am-ALK(3)-N3-THY], the “Ave. MPA Act” value (tubulin) was “C (C>100)” and the “Ave. TK1 Kinase Act.” value [3] was “A (A<20)”.

For `Nc1nc2c(ncn2[C@H]2C[C@H](O)[C@@H](CO)O2)c(=O)[nH]1` [dGuo], the dCK [2] is listed as 300 and the dGK [1] is listed as 50.

For `O=c1[nH]cnc2c1ncn2[C@H]1C[C@H](O)[C@@H](CO)O1` [dino], the dCK [2] is given as 120 and the dGK [1] is given as 100.

Compound `CC(=O)O[C@H]1C(=O)C2(C)[C@@H](OC(=O)NCCCCCCn3c(=O)c(C)cn([C@H]4CC(O)[C@@H](CO)O4)c3=O)CC3OC[C@]3(OC(C)=O)[C@H]2[C@H](OC(=O)c2ccccc2)[C@]2(O)C[C@H](OC(=O)[C@H](O)[C@@H](NC(=O)c3ccccc3)c3ccccc3)C(C)=C1C2(C)C` (some centres unmarked) [PXL-7Ca-ALK(6)-N3-THY] has an EC50 (MCF-7 breast carcinoma [4]; mean ± SD, read-out: MCF-7 Monolayer EC50) of 120 ± 73 nM, an EC50 (MCF-7 breast carcinoma [4]; monolayer, 72 hours, AlamarBlue, read-out: MCF7 (EC50 Ave) ML) of less than 100 nM and an EC50 ([5]; mean ± SD, read-out: HT-29 Monolayer EC50) of 258 ± 129 nM. For the same compound, the EC50 ([5]; monolayer, 72 hours, AlamarBlue, read-out: HT29 (EC50 Ave) ML) was 100 to 1000 nM, the “Ave. MPA Act” value (tubulin) was “B (B=60-100)” and the EC50 (HUVEC) was 100 to 1000 nM. The “Relative Percent Remaining at 0 hr” value ([6]; 37° C., medium with 10% fetal bovine serum, 0 hr) was 100%, the “Relative Percent Remaining at 4 hr” value ([6]; 37° C., medium with 10% fetal bovine serum, 4 hr) was 84% and the “Relative Percent Remaining at 8 hr” value ([6]; 37° C., medium with 10% fetal bovine serum, 8 hr) was 90%. The “Relative Percent Remaining at 24 hr” value ([6]; 37° C., medium with 10% fetal bovine serum, 24 hr) was 80%, the “Relative Percent Remaining at 72 hr” value ([6]; 37° C., medium with 10% fetal bovine serum, 72 hr) was 38% and the half-life ([6]; bovine, serum) was 55 h. For the same compound, the “Ave. TK1 Kinase Act.” value [3] was “A (A<20)”, the EC50 ([7]; mean ± SD, read-out: HFF Monolayer EC50) was 457 ± 310 nM and the EC50 ([7]; monolayer, 72 hours, AlamarBlue, read-out: HFF (EC50 Ave) ML) was 100 to 1000 nM. It also gave an EC50 (MCF-7 breast carcinoma [8]; MCF7, read-out: MCF7 (EC50 Ave) SA) of less than 100 nM, an EC50 (MCF-7 breast carcinoma [8]; MCF7, read-out: MCF-7 Soft Agar EC50) of 40 ± 41 nM and an EC50 ([9]; HT-29, read-out: HT29 (EC50 Ave) SA) of 100 to 1000 nM. The EC50 ([9]; HT-29, read-out: HT-29 Soft Agar EC50) was 120 ± 4 nM.
